Assay results published in patent US12209080B2, “Polymorphic forms of kinase inhibitor compound, pharmaceutical composition containing same, preparation method therefor and use thereof” (EQUINOX SCIENCES, LLC, priority 2016, dated 2025).
In brackets after ≈: the same amount, converted by molar mass. Like-named read-outs stand apart in the source and are kept apart here.

How the values were obtained:
[1] = Thermodynamic stability experiment in solvents at 60° C. (XRD); assay type: physicochemical; conditions: one day
Protocol: The crystalline form 1, crystalline form 2, crystalline form 3 and crystalline form 7 of the compound of formula I were mixed with acetone, ethyl acetate, methanol, water and tetrahydrofuran respectively, and then kept at 60° C. for one day for the investigation of the thermodynamic stability of each crystalline form. Insoluble solid was recovered by filtration and analyzed by XRD. Analysis conditions: Shimadzu XRD-6000, CuK source (1.54056 A) 40 kV, 30 mA; detection angle: 5-50°, speed: 5°/min.

[2] = Stability of the crystalline forms (HPLC, XRD, DSC); assay type: physicochemical; conditions: for HPLC Maximum single impurity %: retention time (min) in brackets
Protocol: Experimental conditions: the samples were sealed and placed at 80° C. for 24 hours, and then placed in an open dish at 25° C./60% RH (relative humidity) and 40° C./75% RH for 7 days. Detection method: HPLC (only for the starting samples and samples placed at 80° C. for 24 hours), XRD, DSC.
In addition, the long-term stabilities of the crystalline form 1 for 12 months, 24 months, 36 months, and 48 months at 25° C./60% RH were also investigated.

[3] = Grinding stability experiment (XRD); assay type: physicochemical; conditions: ground and sieved, US standard 200-300 mesh
Protocol: Crystalline form 1 was ground and sieved. The US standard 200-300 mesh sieved samples were collected and XRD analyzed. Analysis conditions: Shimadzu XRD-6000, CuK source (1.54056 Å) 40 kV, 30 mA; detection angle: 5-50°, speed: 5°/min.

[4] = Solubility determination in water by HPLC; assay type: physicochemical; conditions: suspension in water, 25° C.
Protocol: HPLC detection was performed using the crystalline form 1 as a standard, with its concentration of 204.2 μg*mL^−1 and its content set as 100%, and the detection was performed 7 times. The average peak area was 159.691 mAU*min (retention time was 7.4 min).

[5] = Dissolution rate of crystalline forms 1 and 2; assay type: physicochemical
Description: (§1) The moisture content, solubility and dissolution rate of the crystalline forms 1 and 2 were detected using the methods described above. The results are shown in Table 21, which indicate that the solubility, dissolution, and moisture content (total pharmaceutical properties) of the crystalline form 1 are higher than that of the crystalline form 2. Moreover, the crystalline forms 1 and 2 have the highest solubility in methanol.

[6] = Moisture-induced crystallization experiment (XRD); assay type: physicochemical; conditions: room temperature, 58-97% RH, up to 10 days
Protocol: About 10 mg of the crystalline form 1 was taken and placed in the corresponding environment, and the solid was detection by XRD at different time.

[7] = Dynamic vapor sorption (DVS) / moisture absorption; assay type: physicochemical; conditions: for weight change (DVS): range of 0% RH to 80% RH, 25° C.
Protocol: (4) Dynamic Water Adsorption (DVS), TA Instruments Q5000 TGA; controlling software: Thermal Advantage; analysis software: Universal Analysis; sample plate: platinum crucible; amount of the sample to be detected: 1-10 mg; protective gas: nitrogen; gas flow fate: 10 mL/min; detection method: equilibration at 25° C., humidity: 0%, isothermal treatment: 90 min, weight change to be detected: from 0% RH to 80% RH;
as §1

[8] = Pharmacokinetic experiment, oral administration; assay type: in vivo, Sprague Dawley rats; conditions: rat, oral 10 mg/kg; for AUC(0-t) / Cmax: suspension in 0.5% CMC, 10 mg/kg
Protocol: Twelve Sprague Dawley rats with weight of 230-250 g were randomly divided into 2 groups, wherein each group consisted of 3 males and 3 females. Crystalline forms 1 and 2 were separately prepared as suspensions in 0.5% carboxymethylcellulose (CMC). The rats were fasted for 12 hours with free access to water and then orally administered at a dose of 10 mg/kg. Blood samples (0.2-0.3 ml) before and after 15, 30, 60, 120, 240, 360, 480, 720, 1440 minutes of the oral administration were collected in heparin anticoagulation tubes, which were then centrifuged to obtain plasma. The plasma was stored at −20° C., followed by analysis using API 4000 MS in conjunction with a HPLC unit. The pharmacokinetic parameters Cmax and AUC were calculated according to the determined plasma concentrations and summarized in Table 22.

[9] = Determination of solubility in conventional solvents, visual inspection method; assay type: physicochemical; conditions: thermodynamic from solid, 25° C.
Description: If the sample is still not dissolved at a specific concentration, its solubility is expressed as “<specific concentration”;

[10] = Tissue accumulation experiment in tumor-bearing mice; assay type: in vivo, BALB/cA nude mice; design: content in Tumor / content in Liver / content in Kidney / content in Heart / content in Lung / content in Muscle / content in Brain: unit not given here
Protocol: Human colon cancer H-29 cells were implanted into the armpits of BALB/cA nude mice. Seven days after the implantation of H-29 cells, 8 female mice were administered with the crystalline form 1 (twice a day) at 40 mg/kg or sunitinib at 40 mg/kg (once a day). The drug administration was continuous for 21 days. Plasma, tissue and tumor samples were collected for analysis 4 hours after the administration on the 22nd day morning.

[11] = 40 mg/kg for 21 days (crystalline form 1 twice a day, sunitinib once a day), 4 hours after administration on day 22

crystalline form recovered (XRD) ([1]; acetone, ethyl acetate, methanol or water, conversion not complete in methanol): converted to crystalline form 2
crystalline form recovered (XRD) ([1]; tetrahydrofuran (THF)): to crystalline form 3
HPLC Purity % ([2]; 0 day (starting sample)): 99.67%
HPLC Maximum single impurity % ([2]; 0 day (starting sample)): 0.22 (4.73) %
long-term stability of the crystalline form ([2]; 12, 24, 36 and 48 months at 25° C./60% RH): substantially unchanged
crystalline form and melting point by XRD and DSC ([2]; sealed 80° C. 24 hours, open dish 25° C./60% RH and 40° C./75% RH for 7 days): substantially unchanged
HPLC Purity % ([2]; sealed, 80° C./24 h): 98.87%
HPLC Maximum single impurity % ([2]; sealed, 80° C./24 h): 1.03 (4.73) %
stability during grinding (XRD pattern before and after) [3]: remained stable
concentration (solubility in water) ([4]; 0.5 hours): 1.12 µg/mL
concentration (solubility in water) ([4]; 4 hours): 1.32 µg/mL
Internal dissolution rate [5]: 0.022 mg/(min · cm^2)
stability under humidity conditions (overall) [6]: stable
Moisture absorption ([7]; RH 50%): 2.015%
Moisture absorption ([7]; RH 80%): 2.578%
weight change (DVS) [7]: about 2.8%
weight change (DVS) ([7]; listed as Crystalline form 1): 2.8%
Cmax relative to crystalline form 2 [8]: about 4 times
exposure (AUC) relative to crystalline form 2 [8]: about 3 times
AUC(0-t) ([8]; average value): 10488.3 ng·h/mL
Cmax ([8]; average value): 1340.3 ng/mL
AUC(0-t) ([8]; female 1): 3536.6 ng·h/mL
Cmax ([8]; female 1): 593.9 ng/mL
AUC(0-t) ([8]; female 2): 28571.4 ng·h/mL
Cmax ([8]; female 2): 2649.0 ng/mL
AUC(0-t) ([8]; female 3): 16634.2 ng·h/mL
Cmax ([8]; female 3): 2033.3 ng/mL
AUC(0-t) ([8]; male 1): 3180.0 ng·h/mL
Cmax ([8]; male 1): 716.6 ng/mL
AUC(0-t) ([8]; male 2): 6766.0 ng·h/mL
Cmax ([8]; male 2): 1071.3 ng/mL
AUC(0-t) ([8]; male 3): 4241.5 ng·h/mL
Cmax ([8]; male 3): 977.7 ng/mL
Solubility ([9]; acetone, organic solvent or mixture, read-out: solubility in acetone): 1000 to 2500 µg/mL (≈ 2280 to 5690 µM)
Solubility ([9]; acetonitrile, organic solvent or mixture, read-out: solubility in acetonitrile): < 1000 µg/mL
Solubility ([9]; ethanol, organic solvent or mixture, read-out: solubility in ethanol): 1000 to 2500 µg/mL (≈ 2280 to 5690 µM)
Solubility ([9]; ethyl acetate, organic solvent or mixture, read-out: solubility in ethyl acetate): < 1000 µg/mL
Solubility ([9]; methanol, organic solvent or mixture, read-out: solubility in methanol): 5000 to 12500 µg/mL (≈ 11400 to 28400 µM)
Solubility ([9]; methyl tert-butyl ether, organic solvent or mixture, read-out: solubility in methyl tert-butyl ether): < 1000 µg/mL
Solubility ([9]; n-heptane, organic solvent or mixture, read-out: solubility in n-heptane): < 1000 µg/mL
Solubility ([9]; tetrahydrofuran, organic solvent or mixture, read-out: solubility in tetrahydrofuran): 1000 to 2500 µg/mL (≈ 2280 to 5690 µM)
Solubility ([9]; toluene, organic solvent or mixture, read-out: solubility in toluene): < 1000 µg/mL
Solubility ([9]; water, read-out: solubility in water): < 1000 µg/mL
content in Brain [10, 11]: 9.3
content in Heart [10, 11]: 124.8
content in Kidney [10, 11]: 418.3
content in Liver [10, 11]: 1,715.3
content in Lung [10, 11]: 144.9
content in Muscle [10, 11]: 77.6
content in Plasma [10, 11]: 191.6
content in Tumor [10, 11]: 153.4
content in plasma, compared with sunitinib ([10]; 40 mg/kg twice a day, 21 days): comparable to that of sunitinib
SMILES: Cc1[nH]c(/C=C2\C(=O)Nc3ccc(F)cc32)c(C)c1C(=O)N[C@H]1CCN(C(=O)N(C)C)C1 [crystalline form 1, 5-[5-fluoro-2-oxo-1,2-dihydro-indole-(3Z)-ylidenemethyl]-2,4-dimethyl-1H-pyrrole-3-carboxylic acid ((S)-1-dimethylcarbamoyl-pyrrolidin-3-yl)-amide]
tissue accumulation in all tested tissues, compared with sunitinib ([10]; 40 mg/kg twice a day, 21 days): significantly lower than that of sunitinib
